Laboratory results reported in patent US3965109A, “Certain aryl amino pyridines” (priority 1971, dated 1976).

Columns and labels:
Type in all cases: in vivo
[1] = test system: Musca domestica (houseflies); test: Pest toxicity test, contact test; conditions: 0.1% by weight; milk/sugar; 2 days; flies sprayed directly
[2] = test system: Aedes aegypti (mosquito adults); test: Pest toxicity test; conditions: 0.01% by weight; plywood; 1 day
[3] = test system: Plutella maculipennis (diamond back moth larvae); test: Pest toxicity test; conditions: in vivo
[4] = test system: Piricularia oryzae (rice); conditions: 100 ppm spray and drench; 7 days
[5] = test system: Aedes aegypti (mosquito larvae); test: Pest toxicity test; conditions: 0.01% by weight; water; 1 day
[6] = test system: Phytophthora infestans (tomato); conditions: 100 ppm spray and drench; 3 days
Aphis fabae = test: Pest toxicity test; conditions: 0.1% by weight; broad bean; 2 days
[7] = test system: Phaedon cochleariae (mustard beetles); test: Pest toxicity test; conditions: in vivo
[8] = test system: Pieris brassicae (cabbage white caterpillars); test: Pest toxicity test; conditions: 0.1% by weight, 2 days
[9] = test system: Plasmopara viticola (vine); test: Fungicidal test against foliar disease C (foliage spray plus soil drench); conditions: 100 ppm spray and drench; 10 days
Uncinula necator (vine) = test: Fungicidal test against foliar disease D (foliage spray plus soil drench); conditions: 100 ppm spray and drench; 10 days
[10] = test system: Puccinia recondita (wheat); test: Fungicidal test against foliar disease A (foliage spray plus soil drench); conditions: 100 ppm spray and drench; 10 days
Megoura viceae = test: Pest toxicity test; conditions: 0.1% by weight; broad bean; 2 days
[11] = test system: Tetranychus telarius (red spider mites, adults); test: Pest toxicity test; conditions: 0.1% by weight; French bean; 3 days
Lettuce = test: Herbicidal test, pre- and post-emergence; conditions: 10 kg/ha; scale 0 to 3 (complete kill)
Tomato = test: Herbicidal test, pre- and post-emergence; conditions: 10 kg/ha; scale 0 to 3 (complete kill)
Wheat = test: Herbicidal test, pre- and post-emergence; conditions: 10 kg/ha; scale 0 to 3 (complete kill)
Maize = test: Herbicidal test, pre- and post-emergence; conditions: 10 kg/ha; scale 0 to 3 (complete kill)

Structure (SMILES): Fc1nc(F)c(Cl)c(Nc2c(Cl)c(Cl)c(Cl)c(Cl)c2Cl)c1Cl [Compound 9, 3,5-Dichloro-2,6-difluoro-4(pentachloroanilino)pyridine]
- Mortality grading (kill), contact test [1]: 3 (3 represents over 90% kill)
- Mortality grading (kill) [2]: 0 (O represents less than 30% kill)
- Mortality grading (kill) [3]: 3 (key: O represents less than 30% kill; 1 represents 30 - 49% kill; 2 represents 60 - 90% kill; 3 represents over 90% kill; C indicates a chemosterilant effect.; A indicates an antifeeding effect.)
- Amount of disease grading, disease E [4]: 3 (0 to 5)
- Mortality grading (kill) [5]: 3 (3 represents over 90% kill)
- Amount of disease grading, disease B [6]: 0 (61 to 100)
- Mortality grading (kill) (Aphis fabae): 0 (O represents less than 30% kill)
- Mortality grading (kill) [7]: 1 (key: O represents less than 30% kill; 1 represents 30 - 49% kill; 2 represents 60 - 90% kill; 3 represents over 90% kill; C indicates a chemosterilant effect.; A indicates an antifeeding effect.)
- Mortality grading (kill) [8]: 0 (O represents less than 30% kill)
- Amount of disease grading, disease C [9]: 0 (61 to 100)
- Amount of disease grading, disease D (Uncinula necator (vine)): 3 (0 to 5)
- Amount of disease grading, disease A [10]: 3 (0 to 5)
- Mortality grading (kill) (Megoura viceae): 0 (O represents less than 30% kill)
- Mortality grading (kill) [11]: 3 (3 represents over 90% kill)

Structure (SMILES): N#Cc1cc([N+](=O)[O-])ccc1Nc1c(Cl)c(F)nc(F)c1Cl [Compound 26, 4(2-Cyano-4-nitroanilino)-3,5-dichloro-2,6-difluoropyridine]
- Amount of disease grading, disease E (Table 4) [4]: 0 (61 to 100)
- Amount of disease grading, disease B (Table 4) [6]: 3 (0 to 5)
- Damage to plants, post-emergence (Lettuce): 3
- Damage to plants, pre-emergence (Lettuce): 3
- Damage to plants, post-emergence (Tomato): 0
- Damage to plants, pre-emergence (Tomato): 3
- Damage to plants, pre-emergence (Wheat): 1
- Damage to plants, post-emergence (Maize): 0
- Damage to plants, pre-emergence (Maize): 0
- Amount of disease grading, disease C (Table 4) [9]: 3 (0 to 5)
